From paper PMC7159882, “Polyunsaturated fatty acid analogues differentially affect cardiac NaV, CaV, and KV channels through unique mechanisms” (eLife, 2020)

System: human induced pluripotent stem cell-derived cardiomyocytes (hiPSC-CM)
Assay: Optical recordings of calcium transients in hiPSC-CM monolayers
Type: cell-based
Protocol: Human induced pluripotent stem cell-derived cardiomyocytes (hiPSC-CM) were purchased from AXOL Bioscience. The hiPSC-CM were thawed and plated following the manufacturer’s protocol. Briefly, cells were plated on Matrigel (Corning) pre-coated glass coverslips cultivated in 96-multiwell plates (Falcon). Matrigel was diluted in sterile DMEM/F12 medium (Gibco) (1:130) and incubated for 2 hr at 37°C before plating the cells. hiPSC-CM were cultured at 37°C and 5% CO2. Cultured hiPSC-CM were fed every other day. […]
CaT fluorescence recordings from cell monolayers were recorded using a Leica DM LFS upright microscope. […] Fluorescence signals were passed through the emission filter, collected by a photodiode, and amplified with an Axopatch 200B patch clamp amplifier (Axon Instruments). Calcium fluorescence signals were low-pass Bessell-filtered (Frequency Devices) at 100 Hz, digitized at 1 kHz, and recorded using Clampex 9.2 and analyzed using Clampfit 9.2. […] Since hiPSC-CM were spontaneously beating and at slightly different frequencies between monolayers, the frequency of the action potentials was calculated as the inverse of the time between CaTs. The action potential duration (APD) was measured in the absence and the presence of DHA-Glycine. The APD90 (or the time required to achieve the 90% of repolarization of the CaT) was measured in all the experiments to test the effects of DHA-glycine. […]

`CC/C=C\C/C=C\C/C=C\C/C=C\C/C=C\C/C=C\CCC(=O)NCC(=O)O` [DHA-glycine, docosahexaenoyl glycine] was tested, and the “CaT APD90c” value (30 µM, corrected by modified Fridericia's formula, control 472 ± 27 ms, n = 3) was 317 ± 9 ms and the “effect on hiPSC-derived cardiomyocytes at lower doses” value (doses lower than 30 μM) was “did not get significant effects at low doses”.
